Source: US9896434B2, “Substituted indanone compounds as GPR119 modulators for the treatment of diabetes, obesity, dyslipidemia and related disorders” (SANOFI, priority 2014, dated 2018)

What follows are compounds tested against T1, human GPR119 (Homo sapiens, UniProt Q8TDV5) (assay: Functional cellular assay measuring GPR119-mediated cAMP release (HTRF)). Conditions: HEK-293 cell line stably expressing recombinant human GPR119; cAMP response, 30 minutes at room temperature.
T1 construct: expressed in transfected cells
T1 sequence (Q8TDV5 1-335): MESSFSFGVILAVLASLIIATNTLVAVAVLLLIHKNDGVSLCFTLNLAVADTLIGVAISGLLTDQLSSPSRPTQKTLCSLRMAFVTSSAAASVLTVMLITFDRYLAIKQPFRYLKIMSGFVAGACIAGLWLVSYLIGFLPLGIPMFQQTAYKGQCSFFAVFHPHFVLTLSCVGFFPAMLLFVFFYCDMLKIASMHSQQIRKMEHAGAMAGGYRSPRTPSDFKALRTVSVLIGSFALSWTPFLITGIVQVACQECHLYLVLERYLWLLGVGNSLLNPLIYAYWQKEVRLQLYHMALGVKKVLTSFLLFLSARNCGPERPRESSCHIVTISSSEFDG
Assay type: cell-based
Procedure: Functional Cellular Assays Measuring GPR119-Mediated cAMP Release
Compounds of the invention, which are agonists of GPR119, were characterized by functional assays measuring the cAMP response of HEK-293 cell lines stably expressing recombinant GPR119 from man, mouse or rat, or by using a hamster cell line HIT-T15 expressing GPR119 endogenously. The cAMP content was determined using a kit based on homogenous time-resolved fluorescence (HTRF) from Cisbio Corp. (cat. no. 62AM4PEC). For preparation, cells were split into T175 culture flasks and grown to near confluency in medium (DMEM/10% FCS for HEK-293 cells, and F-12K medium/10% horse serum/2.5% FCS for HIT-T15 cells, respectively). Medium was then removed and cells washed with PBS lacking calcium and magnesium ions, followed by proteinase treatment with accutase (Sigma-Aldrich, cat. no. A6964). Detached cells were washed and resuspended in assay buffer (1×HBSS; 20 mM HEPES, 0.1% BSA, 2 mM IBMX) and cellular density determined. They were then diluted to 400000 cells/mL and 25 μL-aliquots dispensed to the wells of 96-well plates. For measurement, 25 μL of test compound in assay buffer was added and incubated for 30 minutes at room temperature. After addition of HTRF reagents diluted in lysis buffer, the plates were incubated for 1 hour, followed by measuring the fluorescence ratio at 665 vs. 620 nm. Potency of the agonists was quantified by determining the concentrations that caused 50% of the maximal response/activation (EC50). See Table 4 for exemplary data obtained using the cell line expressing human GPR119.

EC50 [nM] | SMILES
505 | O=C(O)C[C@H]1CC(=O)c2cc(N3CC[C@@H](Oc4ccc(OCC5CC5)nc4)C3=O)ccc21 [Example 2-04, 2-[5-[(3R)-3-[[6-(cyclopropylmethoxy)-3-pyridyl]oxy]-2-oxo-pyrrolidin-1-yl]-3-oxo-indan-1-yl]acetic acid]
73 | NC(=O)CC1CC(=O)c2cc(N3CC[C@@H](Oc4ccc(OCC5CC5)nc4)C3=O)cc(F)c21 (stereo partly drawn) [Example 3-10, 2-[5-[(3R)-3-[[6-(cyclopropylmethoxy)-3-pyridyl]oxy]-2-oxo-pyrrolidin-1-yl]-7-fluoro-3-oxo-indan-1-yl]acetamide]
79 | O=C1CC(CCO)c2ccc(N3CC[C@@H](Oc4ccc(OCC5CC5)nc4)C3=O)cc21 (stereo partly drawn) [Example 1-08, (3R)-3-[[6-(cyclopropylmethoxy)-3-pyridyl]oxy]-1-[1-(2-hydroxyethyl)-3-oxo-indan-5-yl]pyrrolidin-2-one]
117 | CN(C)C(=O)C1CC(=O)c2cc(N3CC[C@@H](Oc4ccc(OCC5CC5)nc4)C3=O)cc(F)c21 (stereo partly drawn) [Example 1-16, 5-[(3R)-3-[[6-(cyclopropylmethoxy)-3-pyridyl]oxy]-2-oxo-pyrrolidin-1-yl]-7-fluoro-N,N-dimethyl-3-oxo-indane-1-carboxamide]
135 | O=C(O)CC1CC(=O)c2cc(N3CC[C@@H](Oc4ccc(OCC5CC5)nc4)C3=O)ccc21 (stereo partly drawn) [Example 2-02, {5-[(R)-3-(6-Cyclopropylmethoxy-pyridin-3-yloxy)-2-oxo-pyrrolidin-1-yl]-3-oxo-indan-1-yl}-acetic acid]
82 | CN(C)C(=O)CC1CC(=O)c2cc(N3CC[C@@H](Oc4ccc(OCC5CC5)nc4)C3=O)ccc21 (stereo partly drawn) [Example 3-01, 2-[5-[(3R)-3-[[6-(cyclopropylmethoxy)-3-pyridyl]oxy]-2-oxo-pyrrolidin-1-yl]-3-oxo-indan-1-yl]-N,N-dimethyl-acetamide]
218 | O=C(O)CC1CC(=O)c2cc(N3CC[C@@H](Oc4ccc(OCC5CC5)nc4)C3=O)cc(F)c21 (stereo partly drawn) [Example 2-03, 2-[5-[(3R)-3-[[6-(cyclopropylmethoxy)-3-pyridyl]oxy]-2-oxo-pyrrolidin-1-yl]-7-fluoro-3-oxo-indan-1-yl]acetic acid]
59 | CN(C)C(=O)CC1CC(=O)c2cc(N3CC[C@@H](Oc4ccc(OCC5CC5)nc4)C3=O)cc(F)c21 (stereo partly drawn) [Example 3-11, 2-[5-[(3R)-3-[[6-(cyclopropylmethoxy)-3-pyridyl]oxy]-2-oxo-pyrrolidin-1-yl]-7-fluoro-3-oxo-indan-1-yl]-N,N-dimethyl-acetamide]
16 | COC(=O)C[C@H]1CC(=O)c2cc(N3CC[C@@H](Oc4ccc(OCC5CC5)nc4)C3=O)ccc21 [Example 1-15, methyl 2-[(1R)-5-[(3R)-3-[[6-(cyclopropylmethoxy)-3-pyridyl]oxy]-2-oxo-pyrrolidin-1-yl]-3-oxo-indan-1-yl]acetate]
111 | COC(=O)CC1CC(=O)c2cc(N3CC[C@@H](Oc4ccc(Oc5ccc(F)cc5)cc4)C3=O)ccc21 (stereo partly drawn) [Example 1-03, methyl 2-[5-[(3R)-3-[4-(4-fluorophenoxy)phenoxy]-2-oxo-pyrrolidin-1-yl]-3-oxo-indan-1-yl]acetate]
360 | O=C(O)CC1Cc2c(F)cc(N3CC[C@@H](Oc4ccc(OCC5CC5)nc4)C3=O)cc2C1=O (stereo partly drawn) [Example 2-01, {6-[(R)-3-(6-cyclopropylmethoxy-pyridin-3-yloxy)-2-oxo-pyrrolidin-1-yl]-4-fluoro-1-oxo-indan-2-yl}-acetic acid]
332 | COC(=O)CC1(CC(=O)O)Cc2c(F)cc(N3CC[C@@H](Oc4ccc(OCC5CC5)nc4)C3=O)cc2C1=O (stereo partly drawn) [Example 1-07, 2-[6-[(3R)-3-[[6-(cyclopropylmethoxy)-3-pyridyl]oxy]-2-oxo-pyrrolidin-1-yl]-4-fluoro-2-(2-methoxy-2-oxo-ethyl)-1-oxo-indan-2-yl]acetic acid]
41 | COC(=O)C1Cc2ccc(N3CC[C@@H](Oc4ccc(OCC5CC5)nc4)C3=O)cc2C1=O (stereo partly drawn) [Example 1-10, methyl 6-[(3R)-3-[[6-(cyclopropylmethoxy)-3-pyridyl]oxy]-2-oxo-pyrrolidin-1-yl]-1-oxo-indane-2-carboxylate]
12 | COC(=O)CC1CC(=O)c2cc(N3CC[C@@H](Oc4ccc(OCC5CC5)nc4)C3=O)cc(F)c21 (stereo partly drawn) [Example 1-09, methyl 2-[5-[(3R)-3-[[6-(cyclopropylmethoxy)-3-pyridyl]oxy]-2-oxo-pyrrolidin-1-yl]-7-fluoro-3-oxo-indan-1-yl]acetate]
66 | CNC(=O)CC1Cc2c(F)cc(N3CC[C@@H](Oc4ccc(OCC5CC5)nc4)C3=O)cc2C1=O (stereo partly drawn) [Example 3-08, 2-[6-[(3R)-3-[[6-(cyclopropylmethoxy)-3-pyridyl]oxy]-2-oxo-pyrrolidin-1-yl]-4-fluoro-1-oxo-indan-2-yl]-N-methyl-acetamide]
72 | O=C1CC(CO)c2c(F)cc(N3CC[C@@H](Oc4ccc(OCC5CC5)nc4)C3=O)cc21 (stereo partly drawn) [Example 1-17, (3R)-3-[[6-(cyclopropylmethoxy)-3-pyridyl]oxy]-1-[7-fluoro-1-(hydroxymethyl)-3-oxo-indan-5-yl]pyrrolidin-2-one]
311 | O=C1CC(CCO)c2ccc(N3CC[C@@H](Oc4ccc(Oc5ccc(F)cc5)nc4)C3=O)cc21 (stereo partly drawn) [Example 1-01, (3R)-3-[[6-(4-Fluorophenoxy)-3-pyridyl]oxy]-1-[1-(2-hydroxyethyl)-3-oxo-indan-5-yl]pyrrolidin-2-one]
46 | CN(C)C(=O)CC1Cc2c(F)cc(N3CC[C@@H](Oc4ccc(OCC5CC5)nc4)C3=O)cc2C1=O (stereo partly drawn) [Example 3-06, 2-[6-[(3R)-3-[[6-(cyclopropylmethoxy)-3-pyridyl]oxy]-2-oxo-pyrrolidin-1-yl]-4-fluoro-1-oxo-indan-2-yl]-N,N-dimethyl-acetamide]
83 | O=C1c2cc(N3CC[C@@H](Oc4ccc(OCC5CC5)nc4)C3=O)cc(F)c2CC1CC(=O)N1CCOCC1 (stereo partly drawn) [Example 3-07, (3R)-3-[[6-(cyclopropylmethoxy)-3-pyridyl]oxy]-1-[7-fluoro-2-(2-morpholino-2-oxo-ethyl)-3-oxo-indan-5-yl]pyrrolidin-2-one]
339 | O=C(CC1CC(=O)c2cc(N3CC[C@@H](Oc4ccc(OCC5CC5)nc4)C3=O)ccc21)NC1CC1 (stereo partly drawn) [Example 3-03, N-cyclopropyl-2-[5-[(3R)-3-[[6-(cyclopropylmethoxy)-3-pyridyl]oxy]-2-oxo-pyrrolidin-1-yl]-3-oxo-indan-1-yl]acetamide]
262 | COC(=O)CC1Cc2ccc(N3CCC(Oc4ccc(OCCC(C)C)cc4)C3=O)cc2C1=O (stereo not drawn) [Example 1-02, methyl 2-[6-[3-(4-isopentyloxyphenoxy)-2-oxo-pyrrolidin-1-yl]-1-oxo-indan-2-yl]acetate]
38 | COC(=O)CC1CC(=O)c2cc(N3CC[C@@H](Oc4ccc(OC5CC5)nc4)C3=O)cc(F)c21 (stereo partly drawn) [Example 1-11, methyl 2-[5-[(3R)-3-[[6-(cyclopropoxy)-3-pyridyl]oxy]-2-oxo-pyrrolidin-1-yl]-7-fluoro-3-oxo-indan-1-yl]acetate]
320 | NC(=O)CC1CC(=O)c2cc(N3CC[C@@H](Oc4ccc(OCC5CC5)nc4)C3=O)ccc21 (stereo partly drawn) [Example 3-04, 2-[5-[(3R)-3-[[6-(cyclopropylmethoxy)-3-pyridyl]oxy]-2-oxo-pyrrolidin-1-yl]-3-oxo-indan-1-yl]acetamide]
188 | CNC(=O)CC1CC(=O)c2cc(N3CC[C@@H](Oc4ccc(OCC5CC5)nc4)C3=O)ccc21 (stereo partly drawn) [Example 3-02, 2-[5-[(3R)-3-[[6-(cyclopropylmethoxy)-3-pyridyl]oxy]-2-oxo-pyrrolidin-1-yl]-3-oxo-indan-1-yl]-N-methyl-acetamide]
289 | O=C(CC1Cc2c(F)cc(N3CC[C@@H](Oc4ccc(OCC5CC5)nc4)C3=O)cc2C1=O)NCCO (stereo partly drawn) [Example 3-09, 2-{6-[(R)-3-(6-cyclopropylmethoxy-pyridin-3-yloxy)-2-oxo-pyrrolidin-1-yl]-4-fluoro-1-oxo-indan-2-yl}-N-(2-hydroxy-ethyl)-acetamide]
198 | O=C1CC(CO)c2ccc(N3CC[C@@H](Oc4ccc(OCC5CC5)nc4)C3=O)cc21 (stereo partly drawn) [Example 1-18, (3R)-3-[[6-(cyclopropylmethoxy)-3-pyridyl]oxy]-1-[1-(hydroxymethyl)-3-oxo-indan-5-yl]pyrrolidin-2-one]
19 | COC(=O)C[C@@H]1CC(=O)c2cc(N3CC[C@@H](Oc4ccc(OCC5CC5)nc4)C3=O)ccc21 [Example 1-14, methyl 2-[(1S)-5-[(3R)-3-[[6-(cyclopropylmethoxy)-3-pyridyl]oxy]-2-oxo-pyrrolidin-1-yl]-3-oxo-indan-1-yl]acetate]
